In ChEMBL document CHEMBL1132054, “Synthesis and properties of 2-(naphthosultamyl)methyl-carbapenems with potent anti-MRSA activity: discovery of L-786,392” (Bioorg Med Chem Lett, 1999):
Converted amounts (≈) assume the structure as drawn.

Key:
[1] = Lethal dose defined as as the lowest dose resulting in the death of a single mouse; type: toxicity; conditions: in vivo
[2] = tested on: Streptococcus pneumoniae; test: In vitro antibacterial activity against PRSP.; type: functional
[3] = tested on: Enterococcus faecium; test: In vitro antibacterial activity against MDREFm.; type: functional
[4] = tested on: Staphylococcus aureus; test: Antibacterial activity against Methicillin sensitive Staphylococcus aureus-/+ HSA Fr. V; type: functional
[5] = tested on: Enterococcus faecalis; test: In vitro antibacterial activity against VREFs.; type: functional
[6] = tested on: Staphylococcus aureus; test: In vitro antibacterial activity against MRSA.; type: functional
[7] = target: T1, Dipeptidase 1 (Sus scrofa) (UniProt P22412); test: Susceptibility to hog kidney dehydropeptidase-I.; type: functional, tissue-based; parameters: reference not given here
T1 sequence (whole entry): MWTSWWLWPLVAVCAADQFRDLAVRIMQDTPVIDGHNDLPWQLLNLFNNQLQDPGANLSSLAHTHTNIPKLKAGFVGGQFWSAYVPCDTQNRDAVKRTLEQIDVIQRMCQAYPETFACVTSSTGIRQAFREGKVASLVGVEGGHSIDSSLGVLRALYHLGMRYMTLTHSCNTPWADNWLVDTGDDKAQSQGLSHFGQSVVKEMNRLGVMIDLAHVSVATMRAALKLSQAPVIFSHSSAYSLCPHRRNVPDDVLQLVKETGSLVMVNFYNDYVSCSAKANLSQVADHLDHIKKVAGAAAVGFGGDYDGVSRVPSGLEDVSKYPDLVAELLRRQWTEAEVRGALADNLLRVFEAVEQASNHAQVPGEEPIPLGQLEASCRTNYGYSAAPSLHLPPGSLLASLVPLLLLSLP

[8] = species: Mus musculus; test: Dose showing no visible effects (ataxia, somnolence) in two mice; type: functional
[9] = tested on: Staphylococcus sp.; test: In vitro antibacterial activity against MRCNS.; type: functional
[10] = tested on: Staphylococcus aureus; test: Effect of 43 mg/mL of Human Serum Albumin, Fraction V (HSA Fr. V) on antimicrobial activity was assessed against MSSA strain MB 2985; type: functional
[11] = tested on: Staphylococcus aureus; test: Antibacterial activity against Methicillin sensitive Staphylococcus aureus; type: functional
[12] = tested on: Enterococcus faecium; test: Antibacterial activity against MDREFm; type: functional
[13] = tested on: Staphylococcus aureus; test: Effect of 43 mg/mL of Human Serum Albumin, Fraction V (HSA Fr. V) on antimicrobial activity was assessed against Methicillin sensitive Staphylococcus aureus strain MB 2985; type: functional
[14] = tested on: Enterococcus faecium; test: Antibacterial activity against VREFs; type: functional
[15] = target: T1, Dipeptidase 1 (Sus scrofa); test: Compound was tested for susceptibility to hog kidney dehydropeptidase-I and expressed as a reaction rate normalized to the rate observed with imipenem (IPM); type: functional, tissue-based

MIC [10]	MIC [11]	SMILES	Lethal dose [1]	MIC [2]	MIC [3]	MIC [4]	MIC [5]	MIC [6]	Activity [7]	NOEL [8]	MIC [9]	MIC [12]	MIC [13]	MIC [14]	Activity [15]
–	–	C[C@@H](O)[C@H]1C(=O)N2C(C(=O)O)=C(CN3c4cccc5cc(CC[N+]67CC[N+](CCCO)(CC6)CC7)cc(c45)S3(=O)=O)[C@H](C)[C@H]12.[Cl-].[Cl-]	–	0.17 µg/mL	4 µg/mL	–	8 µg/mL	1.1 µg/mL	0.85	–	1.5 µg/mL	–	–	–	–
0.031 µg/mL	–	C[C@@H](O)[C@H]1C(=O)N2C(C(=O)O)=C(CN3c4cccc5cc(CCC[N+]67CC[N+](CC(N)=O)(CC6)CC7)cc(c45)S3(=O)=O)[C@H](C)[C@H]12.[Cl-].[Cl-]	–	0.5 µg/mL	6.4 µg/mL	0.016 µg/mL	16 µg/mL	2.2 µg/mL	1.25	–	4 µg/mL	–	–	–	–
–	–	CN[C@H](CC(C)C)C(=O)N[C@H]1C(=O)N[C@@H](CC(N)=O)C(=O)N[C@H]2C(=O)N[C@H]3C(=O)N[C@H](C(=O)N[C@H](C(=O)O)c4cc(O)cc(O)c4-c4cc3ccc4O)[C@H](O)c3ccc(c(Cl)c3)Oc3cc2cc(c3O[C@@H]2O[C@H](CO)[C@@H](O)[C@H](O)[C@H]2O[C@H]2C[C@](C)(N)[C@H](O)[C@H](C)O2)Oc2ccc(cc2Cl)[C@H]1O [VANCOMYCIN]	–	0.35 µg/mL (≈ 0.242 µM)	20.2 µg/mL (≈ 13.9 µM)	–	> 64 µg/mL	0.9 µg/mL (≈ 0.621 µM)	–	–	1.7 µg/mL (≈ 1.17 µM)	–	–	–	–
–	–	C[C@@H](O)[C@H]1C(=O)N2C(C(=O)O)=C(CN3c4cccc5c(CC[N+]67CC[N+](CC(=O)Nc8ccccc8)(CC6)CC7)ccc(c45)S3(=O)=O)[C@H](C)[C@H]12.[Cl-].[Cl-]	63 mg/kg	0.12 µg/mL	4 µg/mL	–	4 µg/mL	0.8 µg/mL	1.4	31 mg/kg	1.5 µg/mL	–	–	–	–
0.031 µg/mL	0.016 µg/mL	C[C@@H](O)[C@H]1C(=O)N2C(C(=O)O)=C(CN3c4cccc5ccc(C[N+]67CC[N+](CC(N)=O)(CC6)CC7)c(c45)S3(=O)=O)[C@H](C)[C@H]12.[Cl-].[Cl-]	–	0.71 µg/mL	20.2 µg/mL	–	16 µg/mL	2.5 µg/mL	0.01	–	4 µg/mL	–	–	–	–
–	–	C[C@@H](O)[C@H]1C(=O)N2C(C(=O)O)=C(CN3c4cccc5c(CC[N+]67CC[N+](CC(N)=O)(CC6)CC7)ccc(c45)S3(=O)=O)[C@H](C)[C@H]12.[Cl-].[Cl-]	> 500 mg/kg	0.17 µg/mL	–	0.016 µg/mL	–	0.7 µg/mL	1.77	250 mg/kg	1 µg/mL	4 µg/mL	0.031 µg/mL	8 µg/mL	–
0.062 µg/mL	–	C[C@@H](O)[C@H]1C(=O)N2C(C(=O)O)=C(CN3c4ccc(CC[N+]56CC[N+](CC(N)=O)(CC5)CC6)c5cccc(c45)S3(=O)=O)[C@H](C)[C@H]12.[Cl-].[Cl-]	–	1 µg/mL	16 µg/mL	0.062 µg/mL	32 µg/mL	8 µg/mL	0.74	–	12.1 µg/mL	–	–	–	–
–	–	CCC[N+]12CC[N+](CCc3cc4c5c(cccc5c3)N(CC3=C(C(=O)O)N5C(=O)[C@H]([C@@H](C)O)[C@H]5[C@H]3C)S4(=O)=O)(CC1)CC2.[Cl-].[Cl-]	–	0.24 µg/mL	3.2 µg/mL	–	8 µg/mL	1 µg/mL	–	–	1.5 µg/mL	–	–	–	–
–	–	C[C@@H](O)[C@H]1C(=O)N2C(C(=O)O)=C(CN3c4cccc5c(CC[N+]67CC[N+](Cc8ccccc8)(CC6)CC7)ccc(c45)S3(=O)=O)[C@H](C)[C@H]12.[Cl-].[Cl-]	250 mg/kg	0.35 µg/mL	6.4 µg/mL	–	8 µg/mL	0.9 µg/mL	–	63 mg/kg	1.3 µg/mL	–	–	–	1.85
64 µg/mL	–	C[C@@H](O)[C@H]1C(=O)N2C(C(=O)O)=C(CN3c4c(CC[N+]56CC[N+](CC(N)=O)(CC5)CC6)ccc5cccc(c45)S3(=O)=O)[C@H](C)[C@H]12.[Cl-].[Cl-]	–	> 64 µg/mL	> 64 µg/mL	32 µg/mL	> 64 µg/mL	> 64 µg/mL	–	–	> 64 µg/mL	–	–	–	–
–	–	C[C@@H](O)[C@H]1C(=O)N2C(C(=O)O)=C(CN3c4cccc5cc(CC[N+]67CC[N+](CC(=O)Nc8ccccc8)(CC6)CC7)cc(c45)S3(=O)=O)[C@H](C)[C@H]12.[Cl-].[Cl-]	245 mg/kg	0.17 µg/mL	3.2 µg/mL	–	8 µg/mL	0.2 µg/mL	0.64	<61 mg/kg	0.3 µg/mL	–	–	–	–
–	–	CCC[N+]12CC[N+](CCc3ccc4c5c(cccc35)N(CC3=C(C(=O)O)N5C(=O)[C@H]([C@@H](C)O)[C@H]5[C@H]3C)S4(=O)=O)(CC1)CC2.[Cl-].[Cl-]	–	0.25 µg/mL	6.4 µg/mL	–	16 µg/mL	2.2 µg/mL	1.93	–	4 µg/mL	–	–	–	–
0.125 µg/mL	–	C[C@@H](O)[C@H]1C(=O)N2C(C(=O)O)=C(CN3c4ccc(C[N+]56CC[N+](CC(N)=O)(CC5)CC6)c5cccc(c45)S3(=O)=O)[C@H](C)[C@H]12.[Cl-].[Cl-]	–	1 µg/mL	32 µg/mL	0.031 µg/mL	32 µg/mL	4.2 µg/mL	0.81	–	12.1 µg/mL	–	–	–	–
0.25 µg/mL	0.016 µg/mL	C[C@@H](O)[C@H]1C(=O)N2C(C(=O)[O-])=C(CN3c4cccc5cccc(c45)S3(=O)=O)[C@H](C)[C@H]12.[Na+]	–	0.25 µg/mL	25.4 µg/mL	–	8 µg/mL	0.7 µg/mL	0.99	–	3.5 µg/mL	–	–	–	–
0.031 µg/mL	–	C[C@@H](O)[C@H]1C(=O)N2C(C(=O)O)=C(CN3c4cccc5cc(C[N+]67CC[N+](CC(N)=O)(CC6)CC7)cc(c45)S3(=O)=O)[C@H](C)[C@H]12.[Cl-].[Cl-]	–	0.5 µg/mL	8 µg/mL	0.016 µg/mL	16 µg/mL	2 µg/mL	0.21	–	3 µg/mL	–	–	–	–
–	–	C[C@@H](O)[C@H]1C(=O)N2C(C(=O)O)=C(CN3c4cccc5c(CC[N+]67CC[N+](CCCO)(CC6)CC7)ccc(c45)S3(=O)=O)[C@H](C)[C@H]12.[Cl-].[Cl-]	> 500 mg/kg	0.5 µg/mL	6.4 µg/mL	–	16 µg/mL	0.6 µg/mL	1.9	250 mg/kg	0.9 µg/mL	–	–	–	–

SMILES	MIC [10]	MIC [11]	Lethal dose [1]	MIC [2]	MIC [3]	MIC [4]	MIC [5]	MIC [6]	Activity [7]	NOEL [8]	MIC [9]	MIC [12]	MIC [13]	MIC [14]	Activity [15]
C[C@@H](O)[C@H]1C(=O)N2C(C(=O)O)=C(CN3c4cccc5cc(CC[N+]67CC[N+](CC(N)=O)(CC6)CC7)cc(c45)S3(=O)=O)[C@H](C)[C@H]12.[Cl-].[Cl-]	0.016 µg/mL	–	500 mg/kg	0.17 µg/mL	3.2 µg/mL	0.016 µg/mL	8 µg/mL	0.5 µg/mL	0.75	125 mg/kg	0.6 µg/mL	–	–	–	–
C[C@@H](O)[C@H]1C(=O)N2C(C(=O)O)=C(CN3c4cccc5c(CCC[N+]67CC[N+](CC(N)=O)(CC6)CC7)ccc(c45)S3(=O)=O)[C@H](C)[C@H]12.[Cl-].[Cl-]	0.031 µg/mL	–	500 mg/kg	0.25 µg/mL	4 µg/mL	0.016 µg/mL	8 µg/mL	2 µg/mL	2.64	125 mg/kg	3.5 µg/mL	–	–	–	–
C[C@@H](O)[C@H]1C(=O)N2C(C(=O)O)=C(CN3c4cccc5c(C[N+]67CC[N+](CC(N)=O)(CC6)CC7)ccc(c45)S3(=O)=O)[C@H](C)[C@H]12.[Cl-].[Cl-]	0.031 µg/mL	–	500 mg/kg	0.5 µg/mL	8 µg/mL	0.031 µg/mL	16 µg/mL	1 µg/mL	0.74	250 mg/kg	1.5 µg/mL	–	–	–	–
C[C@@H](O)[C@H]1C(=O)N2C(C(=O)O)=C(SCCNC=N)C[C@H]12 [IMIPENEM ANHYDROUS]	0.016 µg/mL (≈ 0.0534 µM)	–	–	0.25 µg/mL (≈ 0.835 µM)	> 64 µg/mL	0.016 µg/mL (≈ 0.0534 µM)	8 µg/mL (≈ 26.7 µM)	> 40 µg/mL	1	–	> 64 µg/mL	–	–	–	–
C[C@@H](O)[C@H]1C(=O)N2C(C(=O)O)=C(CN3c4cccc5ccc(CC[N+]67CC[N+](CC(N)=O)(CC6)CC7)c(c45)S3(=O)=O)[C@H](C)[C@H]12.[Cl-].[Cl-]	0.016 µg/mL	0.016 µg/mL	63 mg/kg	0.35 µg/mL	10.1 µg/mL	–	8 µg/mL	0.9 µg/mL	0	16 mg/kg	1.2 µg/mL	–	–	–	–
